Measured values taken from PubChem BioAssay AID624327 (Sanford-Burnham Center for Chemical Genomics, 2012).

What follows are compounds tested against Fatty acid synthase (Homo sapiens) (UniProt P49327) (assay: inhibition of human FAS-TE enzyme activity – biochemical, endpoint fluorescence intensity, uHTS hits, dose response (AID 624327)). Settings: recombinant FAS-TE, OMFH fluorogenic substrate.
Sequence of Fatty acid synthase (Homo sapiens) (P49327 whole entry, looked up): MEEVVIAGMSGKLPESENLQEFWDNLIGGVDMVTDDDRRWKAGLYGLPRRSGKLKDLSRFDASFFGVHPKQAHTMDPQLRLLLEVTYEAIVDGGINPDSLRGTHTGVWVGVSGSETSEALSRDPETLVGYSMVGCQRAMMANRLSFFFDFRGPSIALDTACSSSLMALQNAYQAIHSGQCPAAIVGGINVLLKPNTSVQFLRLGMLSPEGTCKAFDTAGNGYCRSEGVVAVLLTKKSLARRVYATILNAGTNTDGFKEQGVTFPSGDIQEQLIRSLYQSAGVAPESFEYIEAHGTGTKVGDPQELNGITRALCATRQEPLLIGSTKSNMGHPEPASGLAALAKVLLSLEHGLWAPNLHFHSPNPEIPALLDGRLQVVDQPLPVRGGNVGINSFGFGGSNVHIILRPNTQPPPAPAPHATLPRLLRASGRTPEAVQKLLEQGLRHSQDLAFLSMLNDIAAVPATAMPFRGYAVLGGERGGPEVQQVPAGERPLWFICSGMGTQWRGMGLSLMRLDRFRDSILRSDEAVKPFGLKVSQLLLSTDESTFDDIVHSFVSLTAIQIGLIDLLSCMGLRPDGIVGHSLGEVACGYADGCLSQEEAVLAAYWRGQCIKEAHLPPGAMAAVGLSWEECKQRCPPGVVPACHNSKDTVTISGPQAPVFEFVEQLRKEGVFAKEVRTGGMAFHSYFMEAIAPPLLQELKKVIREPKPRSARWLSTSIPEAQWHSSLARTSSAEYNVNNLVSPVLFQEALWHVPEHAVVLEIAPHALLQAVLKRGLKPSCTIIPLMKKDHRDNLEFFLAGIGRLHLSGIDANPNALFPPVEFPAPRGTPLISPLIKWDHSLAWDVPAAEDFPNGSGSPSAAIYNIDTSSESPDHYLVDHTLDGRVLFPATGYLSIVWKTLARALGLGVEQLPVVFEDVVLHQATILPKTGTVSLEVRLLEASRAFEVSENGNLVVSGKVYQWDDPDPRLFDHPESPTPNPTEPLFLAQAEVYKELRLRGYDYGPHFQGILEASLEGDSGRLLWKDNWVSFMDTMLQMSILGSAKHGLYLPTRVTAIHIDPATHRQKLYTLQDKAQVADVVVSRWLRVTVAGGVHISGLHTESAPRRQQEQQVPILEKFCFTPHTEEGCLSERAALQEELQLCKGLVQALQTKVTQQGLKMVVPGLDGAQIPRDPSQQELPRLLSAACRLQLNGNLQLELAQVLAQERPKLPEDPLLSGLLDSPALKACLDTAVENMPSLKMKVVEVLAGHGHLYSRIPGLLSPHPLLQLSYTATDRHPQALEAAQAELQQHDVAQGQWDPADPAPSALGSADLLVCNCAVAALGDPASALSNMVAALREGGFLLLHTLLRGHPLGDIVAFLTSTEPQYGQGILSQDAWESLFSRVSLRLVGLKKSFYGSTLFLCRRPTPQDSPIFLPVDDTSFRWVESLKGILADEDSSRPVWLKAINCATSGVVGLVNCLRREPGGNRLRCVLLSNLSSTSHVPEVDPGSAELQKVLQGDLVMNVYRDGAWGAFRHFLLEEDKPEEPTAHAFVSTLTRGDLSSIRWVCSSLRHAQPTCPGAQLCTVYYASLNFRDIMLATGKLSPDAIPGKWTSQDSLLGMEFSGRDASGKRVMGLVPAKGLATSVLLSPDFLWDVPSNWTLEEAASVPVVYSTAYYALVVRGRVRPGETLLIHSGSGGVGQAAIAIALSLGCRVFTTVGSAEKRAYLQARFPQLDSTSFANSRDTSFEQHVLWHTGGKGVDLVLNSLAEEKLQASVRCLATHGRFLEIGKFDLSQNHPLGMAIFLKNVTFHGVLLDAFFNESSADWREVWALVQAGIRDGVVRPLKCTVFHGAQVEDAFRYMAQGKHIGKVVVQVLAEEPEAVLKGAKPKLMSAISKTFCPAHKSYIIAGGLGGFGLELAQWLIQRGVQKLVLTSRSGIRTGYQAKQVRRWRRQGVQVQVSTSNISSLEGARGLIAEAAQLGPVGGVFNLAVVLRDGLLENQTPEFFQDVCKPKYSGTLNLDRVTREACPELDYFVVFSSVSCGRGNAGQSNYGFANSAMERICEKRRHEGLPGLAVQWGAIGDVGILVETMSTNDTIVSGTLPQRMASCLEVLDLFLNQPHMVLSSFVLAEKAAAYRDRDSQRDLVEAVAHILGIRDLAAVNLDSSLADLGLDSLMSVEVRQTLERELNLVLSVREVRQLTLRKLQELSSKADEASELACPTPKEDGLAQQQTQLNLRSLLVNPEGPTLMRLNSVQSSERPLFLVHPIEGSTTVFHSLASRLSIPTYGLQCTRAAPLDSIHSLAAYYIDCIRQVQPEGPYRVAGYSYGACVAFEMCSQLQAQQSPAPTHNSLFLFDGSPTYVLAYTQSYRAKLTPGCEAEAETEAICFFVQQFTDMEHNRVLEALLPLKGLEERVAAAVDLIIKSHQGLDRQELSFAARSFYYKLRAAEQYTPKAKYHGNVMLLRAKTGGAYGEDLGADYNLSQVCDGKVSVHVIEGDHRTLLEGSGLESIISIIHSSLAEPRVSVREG

Row | SMILES | IC50
1 | CCOC(=O)[C@]12Cc3ccccc3[C@H]1N(C1CCCCC1)C(=O)c1cc(OC)ccc12 | 8.27 µM
2 | CN(C)S(=O)(=O)c1ccc(-c2csc(-c3cccnc3)n2)cc1 | 5.21 µM
3 | O=C(C[C@H]1C[C@H](C(=O)N2CCOCC2)[C@@]2(CCC3CCCC3)c3[nH]c4cc(-c5ccco5)ccc4c3CCN2C1=O)NCCc1ccccn1 | 6.97 µM
4 | Cc1cc(C(=O)N/N=C/c2cc([N+](=O)[O-])cc(C)c2O)n[nH]1 | 11.7 µM
5 | COc1ccc(/C=C(\NC(=O)c2ccc([N+](=O)[O-])cc2)C(=O)NCCN2CCOCC2)cc1 | 5.25 µM
6 | CC1(C(=O)NS(=O)(=O)c2ccc(C#N)cc2)CCN1C(=O)c1ccc(C2CCCCC2)cc1 (stereo unspecified) | 5.24 µM
7 | CCN(CC(=O)NCc1cccs1)S(=O)(=O)c1ccc([N+](=O)[O-])cc1 | 17.7 µM
8 | O=C(CC(c1ccccc1)c1ccccc1)NCC(O)c1ccc([N+](=O)[O-])cc1 (stereo unspecified) | 13.5 µM
9 | COc1ccc(NC(=O)CC2C(=O)N(C)C(=S)N2Cc2cccs2)cc1 (stereo unspecified) | 15.8 µM
10 | O=C(c1ccc(Cl)c([N+](=O)[O-])c1)N1CCN(c2ccccc2)CC1 | 12 µM
11 | COCc1cc(C)nc(SCC[N+](C)(C)CC(=O)Nc2ccccc2)c1C#N | 12.3 µM
12 | N/C(=N\OC(=O)CCCc1ccccc1)c1cccc([N+](=O)[O-])c1 | 12 µM
13 | CCCc1cc(C(=O)Nc2cccc([N+](=O)[O-])c2)cs1 | 8.69 µM
14 | CCc1nc2c(OCc3ccc(C(F)(F)F)cc3)cccn2c1N(C=O)Cc1ccc(OC)cc1 | 9.2 µM
15 | COc1ccccc1C(=O)Nc1nc(-c2ccc(S(=O)(=O)N3CCOCC3)cc2)cs1 | 11.8 µM
16 | O=C(CN1C(=O)c2cccc([N+](=O)[O-])c2C1=O)N1CCc2ccccc2C1 | 9.44 µM
17 | CCCC(C)c1nnc(NC(=O)c2cc(C(=O)OC)cc([N+](=O)[O-])c2)s1 (stereo unspecified) | 7.12 µM
18 | COC(=O)c1cc(C(=O)NC(C)C2CC3CCC2C3)cc([N+](=O)[O-])c1 (stereo unspecified) | 11.6 µM
19 | O=C(Nc1nnc(SCc2ccccc2Cl)s1)c1cccc([N+](=O)[O-])c1 | 11.4 µM
20 | O=C(COc1ccc2c(-c3ccccc3)cc(=O)oc2c1)N[C@@H](Cc1c[nH]c2ccc(O)cc12)C(=O)O | 6.86 µM
21 | CN(C(=O)Nc1ccc(Cl)cc1Cl)[C@H]1c2cc(Br)ccc2OC[C@H]1CO | 11 µM
22 | Oc1ccc(Cl)cc1Sc1cc(Cl)ccc1O | 3.55 µM
23 | O=S(=O)(c1ccc(-c2csc(Nc3ccc(F)cc3)n2)cc1)N1CCCC1 | 14.8 µM
24 | CCC(C)(C)C1CCC(=NNS(=O)(=O)c2ccc(C)c([N+](=O)[O-])c2)CC1 (stereo unspecified) | 17.9 µM

Second part, the compound after the results:

Row | IC50 | SMILES
25 | 3.39 µM | CC(C)(C)c1nc2scc(-c3cccs3)c2c(=O)o1
26 | 2.14 µM | O=S(=O)(c1ccc(-c2csc(-c3cccnc3)n2)cc1)N1CCOCC1
27 | 1.83 µM | CCn1c(=O)c([N+](=O)[O-])c(N2CCN(Cc3ccc4c(c3)OCO4)CC2)c2ccccc21
28 | 0.861 µM | CNS(=O)(=O)c1ccc2c(c1)C(=O)c1cc(S(=O)(=O)NC)ccc1CC2
29 | 1.56 µM | CC(C)(C)OC(=O)NCCCC[C@H](NC(=O)c1nc[nH]c1C(=O)NC1CCN(C(=O)OC(C)(C)C)CC1)C(=O)OC(C)(C)C
30 | 4.68 µM | O=C(Nc1nc(-c2ccc(S(=O)(=O)N3CCCC3)cc2)cs1)c1ccco1
31 | 0.417 µM | O=C(COc1ccccc1)Nc1nc(-c2ccc(S(=O)(=O)N3CCOCC3)cc2)cs1
32 | 3.85 µM | COc1ccc2cc3cc(C(=O)N4CC(C)CC(C)C4)oc3nc2c1 (stereo unspecified)
33 | 4.69 µM | Cc1ccc(NC(=O)NNC(=O)Cn2nc(-c3ccccc3)c(-c3ccccc3)c(C#N)c2=O)cc1
34 | < 0.16 µM | CC(C)(C)OC(=O)NCCCC[C@H](NC(=O)c1nc[nH]c1C(=O)NCC(=O)OCc1ccccc1)C(=O)OC(C)(C)C
35 | 1.51 µM | O=S(=O)(c1ccc(-c2csc(-c3cccnc3)n2)cc1)N1CCCC1
36 | 1.52 µM | Cc1cccc(N2CCN(C(=O)CNC(=O)c3cccc([N+](=O)[O-])c3)CC2)c1C
37 | 2.68 µM | O=S(=O)(c1ccc(-c2csc(-c3cccnc3)n2)cc1)N1CCCCC1
38 | 0.199 µM | CCCCC(=O)Nc1nc(-c2ccc(S(=O)(=O)N3CCOCC3)cc2)cs1
39 | 1.31 µM | O=C(Nc1nc(-c2ccc(S(=O)(=O)N3CCCC3)cc2)cs1)C1COc2ccccc2O1 (stereo unspecified)
40 | 2.72 µM | O=C(OCc1ccc([N+](=O)[O-])cc1)c1cc([N+](=O)[O-])ccc1N1CCOCC1
41 | 3.26 µM | COc1ccc(CNC(=O)/C=C/c2cc([N+](=O)[O-])ccc2OC(F)F)cc1OC
